{
  "source": "patent US20230220347A1",
  "about": "“SCALING UP MYOGENIC TISSUE: LATE PASSAGE MYOGENICITY” (Upside Foods, Inc., priority 2021, published 2023)",
  "test_system": "late passage TERT-immortalized 7A chicken fibroblasts stably transfected with ggMYOD",
  "test": "Myotube formation (MyHC staining) of late passage 7A TERT ggMYOD fibroblasts in different media",
  "format": "cell-based",
  "settings": "7A TERT ggMyoD cells, PDL >100; sodium butyrate 0.1 mM added to ME9",
  "method": "This experiment was designed to assess expression of endogenous downstream myogenic factors (ggMyoG, ggMYMK, and ggMyHC1e) following transfection with a vector encoding ggMYOD in late passage (PDL >100) immortalized fibroblast cells compared to primary fibroblasts. TERT-immortalized 7A fibroblasts were cultured for PDL >100 prior to transfection. For these experiments, a vector including a PGK promoter driving expression of a nucleic acid sequence encoding ggMYOD was transfected into TERT-immortalized 7A chicken fibroblasts (“7A TERT”) or primary fibroblasts using Lipofectamine 3000. Each vector included a puromycin selection cassette to enable selection. Following transfection and selection (0.5 mg/mL puromycin for 4 days), fibroblasts were exposed either to differentiation media (i.e., DMEM/F-12, 2% horse serum) or proliferation media (i.e., ME9; referred to as “undifferentiated” sample (see also culture medias described in FIG. 2)) prior to being assessed for myogenic marker expression using qPCR.\nTo assess whether the late passage immortalized 7A chicken fibroblasts could be induced to form myotubes, the late passage immortalized 7A chicken fibroblasts stably transfected with ggMYOD (as described above; referred to as 7A TERT ggMYOD) were cultured in media: ME58, ME9, and ME9+0.1 mM sodium butyrate. In FIGS. 13A-C MyHC staining was used to aid identification of myotubes.",
  "note": "Entries after “also recorded” stand apart in the source; their conditions may differ.",
  "data": [
    {"compound": "CCCC(=O)[O-].[Na+]", "note": "[sodium butyrate]", "values": [
      {"measurement": "differentiation capacity (myotube formation, MyHC staining)", "result": "dramatic improvement in differentiation capacity; also recorded: significant increase in myogenic differentiation capacity"}
    ]}
  ]
}
